From the CheMixHub viscosity set

Assay: xn = mol fraction of the nth substance listed

CCC(=O)CC + CN(C)c1ccccc1
viscosity [mPa·s], 101 kPa
Conditions	303.15 K	308.15 K
x2 = 0.0612	0.548	0.499
x2 = 0.1145	0.645	0.588
x2 = 0.1652	0.732	0.668
x2 = 0.2302	0.832	0.764
x2 = 0.3025	0.928	0.859
x2 = 0.3741	1.006	0.935
x2 = 0.4256	1.053	0.98
x2 = 0.5023	1.105	1.029
x2 = 0.5714	1.137	1.056
x2 = 0.6325	1.155	1.069
x2 = 0.7045	1.165	1.074
x2 = 0.7812	1.167	1.073
x2 = 0.8512	1.165	1.073

CCC(=O)CC + COC(=O)c1ccccc1
viscosity [mPa·s], 101 kPa
Conditions	x2 = 0.0869	x2 = 0.176	x2 = 0.2669	x2 = 0.3636	x2 = 0.4616	x2 = 0.5586	x2 = 0.6631	x2 = 0.7718	x2 = 0.8792
303.15 K	0.486	0.557	0.634	0.722	0.822	0.932	1.07	1.235	1.422
313.15 K	0.43	0.485	0.548	0.619	0.7	0.79	0.896	1.025	1.169

OCc1ccccc1 + Cc1ccccc1
viscosity [mPa·s]
Conditions	293.15 K	303.15 K	313.15 K	323.15 K
100 kPa, x1 = 0.1006	0.699	–	–	–
100 kPa, x1 = 0.1997	0.851	–	–	–
100 kPa, x1 = 0.3007	1.051	–	–	–
100 kPa, x1 = 0.402	1.329	–	–	–
100 kPa, x1 = 0.502	1.717	–	–	–
100 kPa, x1 = 0.6	2.158	–	–	–
100 kPa, x1 = 0.6925	2.764	–	–	–
100 kPa, x1 = 0.7994	3.659	–	–	–
100 kPa, x1 = 0.8995	4.821	–	–	–
101 kPa, x2 = 0.0973	–	3.563	2.793	2.117
101 kPa, x2 = 0.1952	–	2.788	2.237	1.73
101 kPa, x2 = 0.2937	–	2.226	1.781	1.403
101 kPa, x2 = 0.3927	–	1.758	1.44	1.157
101 kPa, x2 = 0.4924	–	1.386	1.15	0.9401
101 kPa, x2 = 0.5927	–	1.107	0.9561	0.7918
101 kPa, x2 = 0.6936	–	0.8989	0.7776	0.6576
101 kPa, x2 = 0.7951	–	0.7359	0.6508	0.5456
101 kPa, x2 = 0.8972	–	0.6154	0.5511	0.4771

Nc1ccccc1[N+](=O)[O-] + ClC(Cl)(Cl)Cl
viscosity [mPa·s], 101 kPa
Conditions	303.15 K	308.15 K	313.15 K	318.15 K	323.15 K
x1 = 0.02174	0.8952	0.8298	0.7841	0.7321	0.6886
x1 = 0.08489	–	1	0.9361	0.874	0.8093
